Experimental data: US6737383B1, “Herbicidal oxadiazolidines” (priority 1999, dated 2004)

Assays:
velvetleaf = test: Test A velvetleaf; type: in vivo, Abutilon theophrasti; details: 0 to 10 scale where 0 is no effect and 10 is complete control
Method in brief: (§1)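 Injury scored visually after about eleven greenhouse days against untreated plants, 0 = no effect, 10 = complete control. Compounds, formulated in surfactant-containing non-phytotoxic solvent, were applied as preemergence soil drench to sandy loam plantings and as postemergence runoff spray at the 1–2 leaf stage.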

barnyardgrass = test: Test A barnyardgrass; type: in vivo, Echinochloa crus-galli; details: 0 to 10 scale where 0 is no effect and 10 is complete control
Method in brief: as §1

With `CC(C)N(C(=O)n1oc(=O)n(C)c1=O)c1ccc(Cl)cc1` [Compound 137] the “Plant response rating, Velvetleaf” value (velvetleaf; Postemergence, Rate 1000 g/ha) was 2, the “Plant response rating, Velvetleaf” value (velvetleaf; Pre-emergence, Rate 2000 g/ha) was 5 and the “Plant response rating, Barnyardgrass” value (barnyardgrass; Postemergence, Rate 1000 g/ha) was 8. The “Plant response rating, Barnyardgrass” value (barnyardgrass; Pre-emergence, Rate 2000 g/ha) was 10.

In the case of `Cc1ccccc1-n1c(=O)on(C(=O)N(c2cc(OC(C)C)c(Cl)cc2Cl)C(C)C)c1=O` [Compound 42], the “Plant response rating, Velvetleaf” value (velvetleaf; Postemergence, Rate 1000 g/ha) is reported as 0, the “Plant response rating, Velvetleaf” value (velvetleaf; Pre-emergence, Rate 2000 g/ha) is reported as 0 and the “Plant response rating, Barnyardgrass” value (barnyardgrass; Postemergence, Rate 1000 g/ha) is reported as 0. The “Plant response rating, Barnyardgrass” value (barnyardgrass; Pre-emergence, Rate 2000 g/ha) was 0.

`CCN(C(=O)n1oc(=O)n(N(C)c2ccccc2)c1=O)C1CCCCC1` [Compound 183] was tested, and the “Plant response rating, Velvetleaf” value (velvetleaf; Postemergence, Rate 1000 g/ha) was 0, the “Plant response rating, Velvetleaf” value (velvetleaf; Pre-emergence, Rate 2000 g/ha) was 0 and the “Plant response rating, Barnyardgrass” value (barnyardgrass; Postemergence, Rate 1000 g/ha) was 0. The “Plant response rating, Barnyardgrass” value (barnyardgrass; Pre-emergence, Rate 2000 g/ha) was 9.
